The data set in a line: On-resin head-to-side-chain macrolactonisation with cyclative cleavage: free Tyr phenol attacks the C-terminal N-acyl-MeNbz (N-acyl-N'-methylurea) resin, 10% DIEA, giving the Tyr phenyl ester. To be noted: the molecule shown is the open-chain precursor, DCM (models 1-4, rt; 1 and 4 retried in DMF at 60 C), DMF (BPC822, 60 C), scale: 1=cyclic product detected, 0=not detected.

As for `CCCCCC(=O)N[C@@H](Cc1ccc(O)cc1)C(=O)N[C@@H](CC(C)C)C(=O)N1CCC[C@H]1C(=O)N[C@@H](Cc1ccccc1)C(=O)N[C@H](C(=O)N[C@H](C(=O)NCC(=O)n1c(=O)n(C)c2ccc(C(=O)NCC(N)=O)cc21)C(C)C)[C@@H](C)CC`, the ring closure, product found (26-membered ring) amounted to 1.
On to `CCCCCC(=O)N[C@@H](Cc1ccc(O)cc1)C(=O)N1CCC[C@H]1C(=O)N[C@@H](Cc1ccccc1)C(=O)N[C@H](C(=O)N[C@H](C(=O)NCC(=O)n1c(=O)n(C)c2ccc(C(=O)NCC(N)=O)cc21)C(C)C)[C@@H](C)CC`, for which, under “23-membered ring”, the ring closure, product found amounted to 0.
For the setting “29-membered ring, 0.5 h”, `CC[C@H](C)[C@H](NC(=O)[C@@H](Cc1ccc(OC(C)(C)C)cc1)NC(=O)[C@H](CCC(=O)NC(c1ccccc1)(c1ccccc1)c1ccccc1)NC(=O)[C@@H]1CCCN1C(=O)[C@@H](NC(=O)[C@H](CCC(=O)OC(C)(C)C)NC(=O)[C@@H](NC(=O)[C@H](Cc1ccc(O)cc1)NC(=O)OC(C)(C)C)[C@@H](C)OC(C)(C)C)C(C)C)C(=O)n1c(=O)n(C)c2ccc(C(=O)NCC(N)=O)cc21` gave a ring closure, product found of 1.
`CCCCCC(=O)N[C@@H](Cc1ccc(O)cc1)C(=O)NCC(=O)N[C@@H](Cc1ccccc1)C(=O)N[C@@H](C)C(=O)N1CCC[C@H]1C(=O)N[C@@H](C)C(=O)N[C@H](C(=O)N[C@H](C(=O)NCC(=O)n1c(=O)n(C)c2ccc(C(=O)NCC(N)=O)cc21)C(C)C)[C@@H](C)CC`: the ring closure, product found (32-membered ring) came to 0.
`CCCCCC(=O)N[C@@H](Cc1ccc(O)cc1)C(=O)N[C@@H](C)C(=O)N[C@@H](CC(C)C)C(=O)N1CCC[C@H]1C(=O)N[C@@H](Cc1ccccc1)C(=O)N[C@H](C(=O)N[C@H](C(=O)NCC(=O)n1c(=O)n(C)c2ccc(C(=O)NCC(N)=O)cc21)C(C)C)[C@@H](C)CC` came in with a ring closure, product found (29-membered ring) of 1.

The record behind these values is article PMC7189019.
